Test results reported in PubChem BioAssay AID2060904 (Molecular Pharmacology Branch, DTP, NCI, 2025).

System: 349418-098-R-PDC complex spheroid viability
Test: Anticancer human tumor 349418-098-R-PDC patient-derived lung adenocarcinoma cell line growth inhibition [RAS]
Settings: for IC50: curve of first compound; for viability, T/C: stronger effect = lower value; active = viability on the fitted dose curve at most 10% of control; inactive = the rest
Procedure, shortened: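 Tumour cells grown as complex spheroids with HUVEC endothelial cells and mesenchymal stem cells, treated with RAS pathway inhibitor combinations. Each agent spans half-log steps from near clinical Cmax, or 10 microM where Cmax is unknown.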

[1] = second compound 0.000949 µM, first compound 0.0316 µM
[2] = second compound 0.000949 µM, first compound 0.1 µM
[3] = second compound 0.000949 µM, first compound 0.316 µM
[4] = second compound 0.000949 µM, first compound 1 µM
[5] = second compound 0.000949 µM, first compound 3.16 µM
[6] = second compound 0.000949 µM, first compound 10 µM
[7] = second compound 0.003 µM, first compound 0.0316 µM
[8] = second compound 0.003 µM, first compound 0.1 µM
[9] = second compound 0.003 µM, first compound 0.316 µM
[10] = second compound 0.003 µM, first compound 1 µM
[11] = second compound 0.003 µM, first compound 3.16 µM
[12] = second compound 0.003 µM, first compound 10 µM
[13] = second compound 0.00949 µM, first compound 0.0316 µM
[14] = second compound 0.00949 µM, first compound 0.1 µM
[15] = second compound 0.00949 µM, first compound 0.316 µM
[16] = second compound 0.00949 µM, first compound 1 µM
[17] = second compound 0.00949 µM, first compound 3.16 µM
[18] = second compound 0.00949 µM, first compound 10 µM
[19] = second compound 0.03 µM, first compound 0.0316 µM
[20] = second compound 0.03 µM, first compound 0.1 µM
[21] = second compound 0.03 µM, first compound 0.316 µM
[22] = second compound 0.03 µM, first compound 1 µM
[23] = second compound 0.03 µM, first compound 3.16 µM
[24] = second compound 0.03 µM, first compound 10 µM
[25] = second compound 0.0949 µM, first compound 0.0316 µM
[26] = second compound 0.0949 µM, first compound 0.1 µM
[27] = second compound 0.0949 µM, first compound 0.316 µM
[28] = second compound 0.0949 µM, first compound 1 µM
[29] = second compound 0.0949 µM, first compound 3.16 µM
[30] = second compound 0.0949 µM, first compound 10 µM
[31] = second compound 0.3 µM, first compound 0.0316 µM
[32] = second compound 0.3 µM, first compound 0.1 µM
[33] = second compound 0.3 µM, first compound 0.316 µM
[34] = second compound 0.3 µM, first compound 1 µM
[35] = second compound 0.3 µM, first compound 3.16 µM
[36] = second compound 0.3 µM, first compound 10 µM
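Also: spheroids exposed to compound for seven days before viability readout.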

CC1(O)CCCC1n1c(=O)c(C(F)F)cc2cnc(NC3CCN(S(C)(=O)=O)CC3)nc21 (stereo not given) + CCn1c(-c2cccnc2C(C)OC)c2c3cc(ccc31)N1CCOC(CC(NC(=O)C(C(C)C)N(C)C(=O)C3(F)CCN(C(=O)C#CC(C)(C)N(C)C)CC3)C(=O)N3CCCC(N3)C(=O)OCC(C)(C)C2)C1
active: viability, T/C [6] 2.67% | viability, T/C [12] 2.71% | viability, T/C [18] 3.42% | viability, T/C [24] 2.63% | viability, T/C [36] 2.97%
71 nM: IC50 (second compound 0.03 µM)
54.9 nM: IC50 (second compound 0.003 µM)
64.2 nM: IC50 (second compound 0.0949 µM)
inactive: viability, T/C [1] 60.9% | viability, T/C [2] 35.5% | viability, T/C [3] 27.6% | viability, T/C [4] 21.5% | viability, T/C [5] 18.8% | viability, T/C [7] 60.3% | viability, T/C [8] 38.4% | viability, T/C [9] 24.2% | viability, T/C [10] 20.4% | viability, T/C [11] 17.7% | viability, T/C [13] 67.8% | viability, T/C [14] 45.8% | viability, T/C [15] 23.9% | viability, T/C [16] 20.4% | viability, T/C [17] 15.9% | viability, T/C [19] 70.3% | viability, T/C [20] 39.7% | viability, T/C [21] 24.8% | viability, T/C [22] 19.2% | viability, T/C [23] 20% | viability, T/C [25] 74% | viability, T/C [26] 31.6% | viability, T/C [27] 22.3% | viability, T/C [28] 19.5% | viability, T/C [29] 16.4% | viability, T/C [30] 2.35% | viability, T/C [31] 52.5% | viability, T/C [32] 31.6% | viability, T/C [33] 22.4% | viability, T/C [34] 19% | viability, T/C [35] 18.4%
76.3 nM: IC50 (second compound 0.00949 µM)
31.6 nM: IC50 (second compound 0.3 µM)
54.1 nM: IC50 (second compound 0.000949 µM)

CCC(CC)c1cc(NC2CCC(N)C2)n2nccc2n1 (stereo not given) + CCn1c(-c2cccnc2C(C)OC)c2c3cc(ccc31)N1CCOC(CC(NC(=O)C(C(C)C)N(C)C(=O)C3(F)CCN(C(=O)C#CC(C)(C)N(C)C)CC3)C(=O)N3CCCC(N3)C(=O)OCC(C)(C)C2)C1
795 nM: IC50 (second compound 0.03 µM)
active: viability, T/C [5] 2.1% | viability, T/C [6] 2.24% | viability, T/C [11] 2.87% | viability, T/C [12] 1.93% | viability, T/C [17] 2.14% | viability, T/C [18] 2.37% | viability, T/C [23] 2.21% | viability, T/C [24] 2.43% | viability, T/C [29] 2.89% | viability, T/C [30] 2.25% | viability, T/C [35] 2.89% | viability, T/C [36] 3.28%
840 nM: IC50 (second compound 0.000949 µM)
629 nM: IC50 (second compound 0.3 µM)
1320 nM: IC50 (second compound 0.003 µM)
inactive: viability, T/C [1] 105% | viability, T/C [2] 105% | viability, T/C [3] 87.2% | viability, T/C [4] 45.2% | viability, T/C [7] 101% | viability, T/C [8] 94.5% | viability, T/C [9] 72.7% | viability, T/C [10] 66.2% | viability, T/C [13] 123% | viability, T/C [14] 105% | viability, T/C [15] 86% | viability, T/C [16] 44.8% | viability, T/C [19] 106% | viability, T/C [20] 85.5% | viability, T/C [21] 97.8% | viability, T/C [22] 38.5% | viability, T/C [25] 95.2% | viability, T/C [26] 78.8% | viability, T/C [27] 91.1% | viability, T/C [28] 52.4% | viability, T/C [31] 80% | viability, T/C [32] 68.8% | viability, T/C [33] 81.8% | viability, T/C [34] 31.9%
1060 nM: IC50 (second compound 0.0949 µM)
793 nM: IC50 (second compound 0.00949 µM)

CCN1CCN(Cc2ccc(Nc3ncc(F)c(-c4cc(F)c5nc(C)n(C(C)C)c5c4)n3)nc2)CC1 + CCn1c(-c2cccnc2C(C)OC)c2c3cc(ccc31)N1CCOC(CC(NC(=O)C(C(C)C)N(C)C(=O)C3(F)CCN(C(=O)C#CC(C)(C)N(C)C)CC3)C(=O)N3CCCC(N3)C(=O)OCC(C)(C)C2)C1
9.8 nM: IC50 (second compound 0.0949 µM)
7.33 nM: IC50 (second compound 0.3 µM)
12 nM: IC50 (second compound 0.000949 µM)
8.64 nM: IC50 (second compound 0.03 µM)
13.6 nM: IC50 (second compound 0.00949 µM)
14.7 nM: IC50 (second compound 0.003 µM)
inactive: viability, T/C (second compound 0.000949 µM, first compound 0.00316 µM) 80.1% | viability, T/C (second compound 0.000949 µM, first compound 0.01 µM) 54.1% | viability, T/C [1] 30.6% | viability, T/C [2] 22.5% | viability, T/C [3] 18.7% | viability, T/C [4] 13.1% | viability, T/C (second compound 0.003 µM, first compound 0.00316 µM) 85.5% | viability, T/C (second compound 0.003 µM, first compound 0.01 µM) 61% | viability, T/C [7] 28% | viability, T/C [8] 20.3% | viability, T/C [9] 16.8% | viability, T/C [10] 13.4% | viability, T/C (second compound 0.00949 µM, first compound 0.00316 µM) 96% | viability, T/C (second compound 0.00949 µM, first compound 0.01 µM) 52.2% | viability, T/C [13] 39.1% | viability, T/C [14] 22.3% | viability, T/C [15] 16.1% | viability, T/C [16] 14.7% | viability, T/C (second compound 0.03 µM, first compound 0.00316 µM) 80.5% | viability, T/C (second compound 0.03 µM, first compound 0.01 µM) 44.6% | viability, T/C [19] 29% | viability, T/C [20] 21.5% | viability, T/C [21] 15.9% | viability, T/C [22] 14.4% | viability, T/C (second compound 0.0949 µM, first compound 0.00316 µM) 73.4% | viability, T/C (second compound 0.0949 µM, first compound 0.01 µM) 48.7% | viability, T/C [25] 34.5% | viability, T/C [26] 16.6% | viability, T/C [27] 20.6% | viability, T/C [28] 12.5% | viability, T/C (second compound 0.3 µM, first compound 0.00316 µM) 61.5% | viability, T/C (second compound 0.3 µM, first compound 0.01 µM) 45.5% | viability, T/C [31] 33.2% | viability, T/C [32] 21.4% | viability, T/C [33] 19% | viability, T/C [34] 13.5%

C[C@@H](NC(=O)c1ncnc(N)c1Cl)c1ncc(C(=O)Nc2cc(C(F)(F)F)c(Cl)cn2)s1 + CCn1c(-c2cccnc2C(C)OC)c2c3cc(ccc31)N1CCOC(CC(NC(=O)C(C(C)C)N(C)C(=O)C3(F)CCN(C(=O)C#CC(C)(C)N(C)C)CC3)C(=O)N3CCCC(N3)C(=O)OCC(C)(C)C2)C1
1230 nM: IC50 (second compound 0.3 µM)
1430 nM: IC50 (second compound 0.00949 µM)
1580 nM: IC50 (second compound 0.03 µM)
1500 nM: IC50 (second compound 0.003 µM)
inactive: viability, T/C [1] 113% | viability, T/C [2] 106% | viability, T/C [3] 90.3% | viability, T/C [4] 55.4% | viability, T/C [5] 29.4% | viability, T/C [6] 20.2% | viability, T/C [7] 117% | viability, T/C [8] 97.5% | viability, T/C [9] 88.3% | viability, T/C [10] 58.2% | viability, T/C [11] 32.5% | viability, T/C [12] 19.4% | viability, T/C [13] 94.7% | viability, T/C [14] 92.5% | viability, T/C [15] 73.9% | viability, T/C [16] 47.5% | viability, T/C [17] 45.1% | viability, T/C [18] 18.4% | viability, T/C [19] 114% | viability, T/C [20] 84.2% | viability, T/C [21] 82% | viability, T/C [22] 61.4% | viability, T/C [23] 33.7% | viability, T/C [24] 19.5% | viability, T/C [25] 97.2% | viability, T/C [26] 96.5% | viability, T/C [27] 89.3% | viability, T/C [28] 72.4% | viability, T/C [29] 32.5% | viability, T/C [30] 16.8% | viability, T/C [31] 107% | viability, T/C [32] 81.2% | viability, T/C [33] 66.5% | viability, T/C [34] 57.4% | viability, T/C [35] 40.9% | viability, T/C [36] 14.8%
1900 nM: IC50 (second compound 0.0949 µM)
1280 nM: IC50 (second compound 0.000949 µM)

Cc1nc(N2CCC3(CC2)COC(C)C3N)c(CO)nc1Sc1ccnc(N)c1Cl (stereo not given) + CCn1c(-c2cccnc2C(C)OC)c2c3cc(ccc31)N1CCOC(CC(NC(=O)C(C(C)C)N(C)C(=O)C3(F)CCN(C(=O)C#CC(C)(C)N(C)C)CC3)C(=O)N3CCCC(N3)C(=O)OCC(C)(C)C2)C1
inactive: viability, T/C [1] 97.9% | viability, T/C [2] 86.4% | viability, T/C [3] 102% | viability, T/C [4] 103% | viability, T/C [5] 101% | viability, T/C [6] 89.5% | viability, T/C [7] 102% | viability, T/C [8] 91.9% | viability, T/C [9] 119% | viability, T/C [10] 96.7% | viability, T/C [11] 97.1% | viability, T/C [12] 108% | viability, T/C [13] 103% | viability, T/C [14] 106% | viability, T/C [15] 106% | viability, T/C [16] 99.8% | viability, T/C [17] 118% | viability, T/C [18] 90.5% | viability, T/C [19] 119% | viability, T/C [20] 107% | viability, T/C [21] 99.3% | viability, T/C [22] 110% | viability, T/C [23] 115% | viability, T/C [24] 91.5% | viability, T/C [25] 98.5% | viability, T/C [26] 98.9% | viability, T/C [27] 105% | viability, T/C [28] 87.9% | viability, T/C [29] 101% | viability, T/C [30] 100% | viability, T/C [31] 83.7% | viability, T/C [32] 89.3% | viability, T/C [33] 100% | viability, T/C [34] 87.8% | viability, T/C [35] 101% | viability, T/C [36] 77.4%
> 10000 nM: IC50 (second compound 0.000949 µM) | IC50 (second compound 0.003 µM) | IC50 (second compound 0.00949 µM) | IC50 (second compound 0.03 µM) | IC50 (second compound 0.0949 µM) | IC50 (second compound 0.3 µM)
